Data taken from PubChem BioAssay AID588774 (The Scripps Research Institute Molecular Screening Center, 2011).
One block for each compound: values may come before it. The source made the active and inactive calls.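 How the source made its calls: active means target enzyme inhibited at least 50% at a set dose, and selective over every off-target enzyme by a set factor; inactive means weaker inhibition or too little selectivity.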

How the values were obtained:
[1] = molecular target: Platelet-activating factor acetylhydrolase (Mus musculus) (UniProt Q60963); assay: pPAFAH inhibition and serine hydrolase selectivity, SAR follow-up, selectivity assay for pPAFAH inhibitor project, biochemical, gel-based, FP-Rh fluorescence, complex proteome, SAR compounds (AID 588774); conditions: gel-based competitive ABPP, pPAFAH, stronger effect = higher value;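 on inhibition: 0% = DMSO-only band intensity and 100% = blank gel background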
Platelet-activating factor acetylhydrolase (Mus musculus), sequence (Q60963 whole entry, looked up): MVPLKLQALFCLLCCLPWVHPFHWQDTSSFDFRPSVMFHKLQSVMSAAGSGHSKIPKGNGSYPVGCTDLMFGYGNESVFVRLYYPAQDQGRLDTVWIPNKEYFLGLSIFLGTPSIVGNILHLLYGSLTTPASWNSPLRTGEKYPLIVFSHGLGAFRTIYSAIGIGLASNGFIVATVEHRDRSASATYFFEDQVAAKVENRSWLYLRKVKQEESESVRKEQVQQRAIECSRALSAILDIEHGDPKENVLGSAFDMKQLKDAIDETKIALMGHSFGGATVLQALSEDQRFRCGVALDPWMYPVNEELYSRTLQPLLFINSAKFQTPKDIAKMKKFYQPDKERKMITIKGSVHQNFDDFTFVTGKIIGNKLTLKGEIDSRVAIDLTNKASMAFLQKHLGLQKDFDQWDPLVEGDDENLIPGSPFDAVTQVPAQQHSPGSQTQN

ABHD3 = assay: as above; conditions: gel-based competitive ABPP, at 10 µM, stronger effect = higher value
[2] = as above; conditions: gel-based competitive ABPP, at 10 µM
ABHD6 = assay: as above; conditions: gel-based competitive ABPP, stronger effect = higher value
pPAFAH = assay: as above; conditions: gel-based competitive ABPP, anti-targets inhibited, at 10 µM
[3] = molecular target: Monoglyceride lipase (Mus musculus) (UniProt O35678); assay: as above; conditions: gel-based competitive ABPP, MAGL, stronger effect = higher value
Monoglyceride lipase (Mus musculus), sequence (O35678 whole entry, looked up): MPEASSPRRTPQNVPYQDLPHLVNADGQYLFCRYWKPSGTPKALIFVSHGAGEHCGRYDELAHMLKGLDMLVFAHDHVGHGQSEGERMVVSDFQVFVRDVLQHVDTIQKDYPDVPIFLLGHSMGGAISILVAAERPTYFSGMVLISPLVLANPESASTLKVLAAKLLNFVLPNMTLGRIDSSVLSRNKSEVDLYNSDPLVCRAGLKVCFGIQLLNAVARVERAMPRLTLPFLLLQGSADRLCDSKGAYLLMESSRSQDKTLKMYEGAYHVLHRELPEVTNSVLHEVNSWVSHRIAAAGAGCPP

FAAH = assay: as above; conditions: gel-based competitive ABPP, stronger effect = higher value
ABHD4 = ABHD4 (UniProt Q8VD66); assay: as above; conditions: gel-based competitive ABPP, at 10 µM, stronger effect = higher value
ABHD4, sequence (Q8VD66 whole entry, looked up): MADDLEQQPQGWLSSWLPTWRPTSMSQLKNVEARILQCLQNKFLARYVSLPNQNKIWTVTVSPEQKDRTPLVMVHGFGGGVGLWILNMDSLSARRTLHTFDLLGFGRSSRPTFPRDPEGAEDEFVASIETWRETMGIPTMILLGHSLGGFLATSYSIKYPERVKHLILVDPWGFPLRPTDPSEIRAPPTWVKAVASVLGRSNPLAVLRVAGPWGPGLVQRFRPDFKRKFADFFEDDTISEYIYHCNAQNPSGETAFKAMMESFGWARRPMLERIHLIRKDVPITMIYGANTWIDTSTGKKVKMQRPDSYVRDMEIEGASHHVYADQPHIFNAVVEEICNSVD

LYPLA1 = assay: as above; conditions: gel-based competitive ABPP, stronger effect = higher value
LYPLA2 = assay: as above; conditions: gel-based competitive ABPP, stronger effect = higher value
MW 30 kDa = assay: as above; conditions: gel-based competitive ABPP, stronger effect = higher value

inhibition ([1]; at 10 µM): 56% (inactive)
inhibition ([1]; inhibition, at 0.1 µM): 2%
inhibition ([1]; inhibition, at 1 µM): 37%
inhibition (ABHD3): 0% (inactive)
anti-target count ([2]; ABHD3, anti-targets inhibited): 0
anti-target count ([2]; ABHD4, anti-targets inhibited): 0
anti-target count ([2]; ABHD6, anti-targets inhibited): 0
anti-target count ([2]; FAAH, anti-targets inhibited): 0
anti-target count ([2]; LYPLA1, anti-targets inhibited): 0
anti-target count ([2]; LYPLA2, anti-targets inhibited): 0
anti-target count ([2]; MAGL, anti-targets inhibited): 0
inhibition (ABHD6; at 10 µM): 0% (inactive)
anti-target count (pPAFAH): 0
inhibition ([3]; at 10 µM): 0% (inactive)
inhibition (FAAH; at 10 µM): 0% (inactive)
inhibition (ABHD4): 0% (inactive)
inhibition (LYPLA1; at 10 µM): 0% (inactive)
inhibition (LYPLA2; at 10 µM): 0% (inactive)
Structure (SMILES): Cc1cc(N2CCN(C(=O)Oc3ccc(-c4ccc(Br)cc4)cc3)CC2)c2ccccc2n1

inhibition ([1]; at 10 µM): 91% (inactive)
inhibition ([1]; inhibition, at 0.1 µM): 28%
inhibition ([1]; inhibition, at 1 µM): 82%
inhibition (ABHD3): 0% (inactive)
anti-target count ([2]; ABHD3, anti-targets inhibited): 0
anti-target count ([2]; ABHD4, anti-targets inhibited): 0
anti-target count ([2]; ABHD6, anti-targets inhibited): 0
anti-target count ([2]; FAAH, anti-targets inhibited): 0
anti-target count ([2]; LYPLA1, anti-targets inhibited): 0
anti-target count ([2]; LYPLA2, anti-targets inhibited): 0
anti-target count ([2]; MAGL, anti-targets inhibited): 0
inhibition (ABHD6; at 10 µM): 0% (inactive)
anti-target count (pPAFAH): 0
inhibition ([3]; at 10 µM): 0% (inactive)
inhibition (FAAH; at 10 µM): 0% (inactive)
inhibition (ABHD4): 27% (inactive)
inhibition (LYPLA1; at 10 µM): 0% (inactive)
inhibition (LYPLA2; at 10 µM): 0% (inactive)
Structure (SMILES): Cc1cc(N2CCN(C(=O)Oc3ccc(C4CCCC4)cc3)CC2)c2ccccc2n1

inhibition ([1]; at 10 µM): 100% (inactive)
inhibition ([1]; inhibition, at 0.1 µM): 47%
inhibition ([1]; inhibition, at 1 µM): 95%
inhibition (ABHD3): 0% (inactive)
anti-target count ([2]; ABHD3, anti-targets inhibited): 2
anti-target count ([2]; ABHD4, anti-targets inhibited): 2
anti-target count ([2]; ABHD6, anti-targets inhibited): 2
anti-target count ([2]; FAAH, anti-targets inhibited): 2
anti-target count ([2]; LYPLA1, anti-targets inhibited): 2
anti-target count ([2]; LYPLA2, anti-targets inhibited): 2
anti-target count ([2]; MAGL, anti-targets inhibited): 2
inhibition (ABHD6; at 10 µM): 0% (inactive)
anti-target count (pPAFAH): 2
inhibition ([3]; at 10 µM): 64% (inactive)
inhibition ([3]; inhibition, at 0.1 µM): 23%
inhibition ([3]; inhibition, at 1 µM): 51%
inhibition (FAAH; at 10 µM): 71% (inactive)
inhibition (FAAH; inhibition, at 0.1 µM): 16%
inhibition (FAAH; inhibition, at 1 µM): 36%
inhibition (ABHD4): 0% (inactive)
inhibition (LYPLA1; at 10 µM): 0% (inactive)
inhibition (LYPLA2; at 10 µM): 0% (inactive)
Structure (SMILES): Cc1cc(N2CCN(C(=O)Oc3ccc([N+](=O)[O-])cc3)CC2)c2ccccc2n1

The next lines start with the compound.

Structure (SMILES): O=C(N1CCOCC1)n1oc2cc(Cl)ccc2c1=O
inhibition ([1]; at 10 µM): 98%
inhibition ([1]; inhibition, at 0.1 µM): 98%
inhibition ([1]; inhibition, at 1 µM): 98%
inhibition (ABHD3): 0% (inactive)
anti-target count ([2]; ABHD3, anti-targets inhibited): 6
anti-target count ([2]; ABHD4, anti-targets inhibited): 6
anti-target count ([2]; ABHD6, anti-targets inhibited): 6
anti-target count ([2]; FAAH, anti-targets inhibited): 6
anti-target count ([2]; LYPLA1, anti-targets inhibited): 6
anti-target count ([2]; LYPLA2, anti-targets inhibited): 6
anti-target count ([2]; MAGL, anti-targets inhibited): 6
inhibition (ABHD6; at 10 µM): 79% (inactive)
inhibition (ABHD6; inhibition, at 0.1 µM): 37%
inhibition (ABHD6; inhibition, at 1 µM): 58%
anti-target count (pPAFAH): 6
inhibition ([3]; at 10 µM): 68% (inactive)
inhibition ([3]; inhibition, at 0.1 µM): 36%
inhibition ([3]; inhibition, at 1 µM): 53%
inhibition (FAAH; at 10 µM): 100%
inhibition (FAAH; inhibition, at 0.1 µM): 83%
inhibition (FAAH; inhibition, at 1 µM): 96%
inhibition (MW 30 kDa; at 0.1 µM): 31%
inhibition (MW 30 kDa; at 1 µM): 43%
inhibition (ABHD4): 0% (inactive)
inhibition (LYPLA1; at 10 µM): 81% (inactive)
inhibition (LYPLA1; inhibition, at 0.1 µM): 17%
inhibition (LYPLA1; inhibition, at 1 µM): 33%
inhibition (LYPLA2; at 10 µM): 54% (inactive)
inhibition (LYPLA2; inhibition, at 0.1 µM): 21%
inhibition (LYPLA2; inhibition, at 1 µM): 33%

Structure (SMILES): O=C(Oc1noc2cc(Cl)ccc12)N1CCOCC1
inhibition ([1]; at 10 µM): 100%
inhibition ([1]; inhibition, at 0.1 µM): 96%
inhibition ([1]; inhibition, at 1 µM): 97%
inhibition (ABHD3): 0% (inactive)
anti-target count ([2]; ABHD3, anti-targets inhibited): 3
anti-target count ([2]; ABHD4, anti-targets inhibited): 3
anti-target count ([2]; ABHD6, anti-targets inhibited): 3
anti-target count ([2]; FAAH, anti-targets inhibited): 3
anti-target count ([2]; LYPLA1, anti-targets inhibited): 3
anti-target count ([2]; LYPLA2, anti-targets inhibited): 3
anti-target count ([2]; MAGL, anti-targets inhibited): 3
inhibition (ABHD6; at 10 µM): 66% (inactive)
inhibition (ABHD6; inhibition, at 0.1 µM): 27%
inhibition (ABHD6; inhibition, at 1 µM): 46%
anti-target count (pPAFAH): 3
inhibition ([3]; at 10 µM): 26% (inactive)
inhibition (FAAH; at 10 µM): 100%
inhibition (FAAH; inhibition, at 0.1 µM): 85%
inhibition (FAAH; inhibition, at 1 µM): 94%
inhibition (MW 30 kDa; at 0.1 µM): 24%
inhibition (MW 30 kDa; at 1 µM): 39%
inhibition (ABHD4): 0% (inactive)
inhibition (LYPLA1; at 10 µM): 0% (inactive)
inhibition (LYPLA2; at 10 µM): 0% (inactive)
